Laboratory results as given in PMC4550094 (Journal of biomolecular screening, 2013).
Values joined by “and” are separate entries in the source; they are usually repeats but may differ in a detail not shown here. Equal entries are not always repeated. Where two headings read alike, the source gives them in different places.

Legend:
[1] = system: HepG2 cells; test: CellTiter-Glo cell viability assay; format: cell-based, Human; settings: for Cell Viability IC50 / Cell Viability Efficacy (maximum inhibition of cell viability): HepG2, 24 h treatment, mean ± SD of three experiments; for IC50: Homo sapiens, HepG2, 24 h, read-out: Cell Viability IC50
[2] = system: HepG2 cells; test: LipidTOX Red PLD assay, qHTS, 1536-well high-content imaging; format: cell-based, Human; settings: for Primary Screen Efficacy: LOPAC primary qHTS, % of PLD induction by 19.16 µM amiodarone; for Primary Screen Efficacy / EC50: HepG2, 24 h; for EC50: Homo sapiens; for PLD induction (result in words): HepG2, primary screen and cherry-pick confirmation
[3] = system: I13-35 cells; settings: read-out: Literature-Reported EC50, cited from earlier work
[4] = system: HepG2 cells; settings: cited from earlier work; for EC50: read-out: Literature-Reported EC50
[5] = system: hERG channel; settings: cited from earlier work
[6] = system: H4 cells; settings: cited from earlier work
[7] = system: Rat brain; settings: cited from earlier work
[8] = read-out: Confirmation EC50 (PLD induction)
[9] = read-out: Primary Screen EC50 (PLD induction)

Row | Compound | Cell Viability Efficacy (maximum inhibition of cell viability) [1] | EC50 [2, 8] | EC50 [2, 9] | PLD induction (result in words) [2] | further results
1 | CC(C)NCC(O)COc1cccc2ccccc12 (racemic) [(±)-Propranolol] |  |  |  |  | Cell Viability IC50 [1]: Inactive
2 | NC(N)=NC(=O)c1nc(Cl)c(N2CCCCCC2)nc1N [5-(N,N-hexamethylene) amiloride] | 40.7±4.9% |  |  |  | Primary Screen Efficacy [2]: 52.8%
3 | CC(C)(C)[C@]1(O)CCN2C[C@H]3c4ccccc4CCc4cccc(c43)[C@@H]2C1 [(+)-Butaclamol] | 47.2±18.3% |  |  |  | IC50 [1]: 47.8 ± 32.2 µM
4 | NC12CC3CC(CC(C3)C1)C2 [Amantadine] |  | 3.9 ± 4.5 µM | 0.9 µM |  | EC50 ([3]; I13-35 cells): 239 µM
5 | CN(C)CCC=C1c2ccccc2CCc2ccccc21 [Amitriptyline] |  | 4.6 ± 0.5 µM | 10 µM |  | EC50 [4]: 15 µM
6 | COc1cc2nc(N3CCCN(C)CC3)nc(NC3CCN(Cc4ccccc4)CC3)c2cc1OC [BIX 01294] | 98% and 98.6±3.3% | 1.6 ± 0.4 µM | 3.5 µM |  | IC50 [1]: 10 ± 1.6 µM
7 | CC(N)Cc1c[nH]c2ccc(OCc3cccs3)cc12 (centres unmarked) [BW 723C86] | 37.7±11.9% |  |  |  | Primary Screen Efficacy [2]: 62.2%
8 | CN1CCN(c2nc3cc(C(F)(F)F)ccc3n3cccc23)CC1 [CGS-12066A] | 56.7±13.3% |  |  |  | Primary Screen Efficacy [2]: 103.7%
9 | CCN(CC)CCCC(C)Nc1ccnc2cc(Cl)ccc12 (centres unmarked) [Chloroquine] |  | 23.6 µM | 28.2 µM |  | EC50 [3]: 11.8 µM
10 | CN(C)CCCN1c2ccccc2Sc2ccc(Cl)cc21 [Chlorpromazine] |  | 5.4 ± 1.9 µM | 10 µM |  | EC50 ([3]; I13-35 cells): 4.1 µM
11 | CN(C)CCCC1(c2ccc(F)cc2)OCc2cc(C#N)ccc21 (centres unmarked) [Citalopram] |  | 27.5 ± 3.1 µM | 10 µM |  | EC50 ([3]; I13-35 cells): 38 µM
12 | CN1CCN(C2=Nc3cc(Cl)ccc3Nc3ccccc32)CC1 [Clozapine] |  |  |  |  | Literature-Reported: Active at (concentration) [4]: Active at 16 µM
13 | CNCCCN1c2ccccc2CCc2ccccc21 [Desipramine] |  | 5.1 ± 1.1 µM | 11.2 µM |  | EC50 ([3]; I13-35 cells): 9.1 µM
14 | CN(C)CCC=C1c2ccccc2COc2ccccc21 [Doxepin] |  |  |  |  | Literature-Reported: Active at (concentration) [4]: Active at 25 µM
15 | CC(C)(C)c1ccc(C(=O)CCCN2CCC(OC(c3ccccc3)c3ccccc3)CC2)cc1 [Ebastine] |  |  |  | significantly induced PLD formation | HERG channel block [5]: blocking
16 | OC(CN1CCC(Cc2ccc(F)cc2)CC1)c1ccc(Cl)cc1 (centres unmarked) [Eliprodil] | 24.6±2.1% | 9 ± 5 µM | 10 µM |  | IC50 [1]: 26.5 ± 2.2 µM
17 | Cc1c2ccncc2c(C)c2c1[nH]c1ccccc12 [Ellipticine] | 102.3±4.0% | 9 ± 3.3 µM | 5 µM |  | IC50 [1]: 29.8 ± 2.4 µM
18 | COc1ccc(NC(=O)c2ccc(-c3ccc(-c4noc(C)n4)cc3C)cc2)cc1N1CCN(C)CC1 [GR 127935] | 106.7±13.6% | 0.8 µM | 6.3 µM | significantly induced PLD formation | IC50 [1]: 42.6 ± 10.3 µM
19 | COc1ccc2c(c1)c(CCN1CCOCC1)c(C)n2C(=O)c1cccc(Cl)c1Cl [GW405833] | 70.0±58.7% |  |  |  | Primary Screen Efficacy [2]: 49.4%
20 | CC(C(O)c1ccc(O)cc1)N1CCC(Cc2ccccc2)CC1 (centres unmarked) [Ifenprodil] | 25.5±0.8% | 12.3 ± 6.7 µM | 7.9 µM |  | IC50 [1]: 21.1 ± 1.7 µM
21 | CN(C)CCCN1c2ccccc2CCc2ccccc21 [Imipramine] |  | 20.8 ± 6.9 µM | 10 µM |  | EC50 ([3]; I13-35 cells): 21 µM
22 | CC(=O)N1CCN(c2ccc(OCC3COC(Cn4ccnc4)(c4ccc(Cl)cc4Cl)O3)cc2)CC1 (centres unmarked) [Ketoconazole] |  | 5.4 ± 2 µM | 2.8 µM |  | Literature-Reported: Active at (concentration) [4]: Active at 8.3 µM
23 | COc1cc2nc(N3CCN(C(=O)OCc4ccccc4)[C@H](C(=O)NC(C)(C)C)C3)nc(N)c2cc1OC [L-765,314] | 115.2±0.3% |  |  |  | Primary Screen Efficacy [2]: 54.1%
24 | CC(CCc1ccccc1)NCC(O)c1ccc(O)c(C(N)=O)c1 (centres unmarked) [Labetalol] |  | 24.8 ± 4.9 µM | 12.6 µM |  | 
25 | CCOC(=O)N1CCC(=C2c3ccc(Cl)cc3CCc3cccnc32)CC1 [Loratadine] |  |  |  |  | Literature-Reported: Active at (concentration) [4]: Active at 16 µM
26 | CC12CC3CC(C)(C1)CC(N)(C3)C2 [Memantine] |  | 29 ± 1.7 µM | 12.6 µM |  | EC50 ([3]; I13-35 cells): 93.7 µM

Row | Compound | Cell Viability Efficacy (maximum inhibition of cell viability) [1] | EC50 [2, 8] | EC50 [2, 9] | PLD induction (result in words) [2] | further results
27 | CN1C[C@H](CNC(=O)OCc2ccccc2)C[C@@H]2c3cccc4c3c(cn4C)C[C@H]21 [Metergoline] | 127.9±4.1% | 5.8 ± 1.3 µM | 2.5 µM |  | IC50 [1]: 62.8 µM
28 | CSc1ccc2c(c1)C(N1CCN(C)CC1)Cc1ccccc1S2 (centres unmarked) [Methiothepin] | 121.8±9.0% |  |  |  | Primary Screen Efficacy [2]: 76.9%
29 | COCC(=O)O[C@]1(CCN(C)CCCc2nc3ccccc3[nH]2)CCc2cc(F)ccc2[C@@H]1C(C)C [Mibefradil] | 97.0±3.3% | 10.4 ± 3.3 µM | 4.5 µM |  | IC50 [1]: 25.2 ± 4.1 µM
30 | COc1ccccc1N1CCN(CCCCN2C(=O)c3ccccc3C2=O)CC1 [NAN-190] |  | 2 ± 0.3 µM | 2.2 µM | significantly induced PLD formation | Cell Viability IC50 [1]: Inactive
31 | CC(C)[C@H]1c2ccc(F)cc2CC[C@@]1(CCN(C)CCCc1nc2ccccc2[nH]1)OC(=O)C1CC1 [NNC 55-0396] | 106% and 106.3±4.3% |  |  |  | Primary Screen Efficacy [2]: 91.6%
32 | CN1CCN(C2Cc3ccccc3Sc3ccc(Cl)cc32)CC1.O=C(O)/C=C\C(=O)O (centres unmarked) [Octoclothepin] | 121.0±4.9% |  |  |  | Primary Screen Efficacy [2]: 135.0%
33 | C[C@@H]1O[C@@H](O[C@H]2C[C@@H](O)[C@]3(CO)[C@H]4[C@H](O)C[C@]5(C)[C@@H](C6=CC(=O)OC6)CC[C@]5(O)[C@@H]4CC[C@]3(O)C2)[C@H](O)[C@H](O)[C@H]1O [Ouabain] | 43.6±1.1% | 3 ± 1.8 µM | 0.4 µM |  | Cell Viability Efficacy (maximum inhibition of cell viability) ([1]; listed as ouabain): 42%; IC50 [1]: 0.2 µM
34 | Fc1ccc([C@@H]2CCNC[C@H]2COc2ccc3c(c2)OCO3)cc1 [Paroxetine] |  | 3 ± 0.7 µM | 5.6 µM | induce PLD | Literature-Reported: Active at (concentration) [6]: Active at 5 µM
35 | N=C(N)c1ccc(OCCCCCOc2ccc(C(=N)N)cc2)cc1 [Pentamidine] |  | 2.8 ± 2.4 µM | 1.4 µM |  | EC50 [4]: 8.3 µM
36 | CN(C)CCCN1c2ccccc2Sc2ccccc21 [Promazine] |  | 5.7 ± 1.9 µM | 22.4 µM |  | EC50 ([3]; I13-35 cells): 5.3 µM
37 | CCN(CC)CCCC(C)Nc1c2ccc(Cl)cc2nc2ccc(OC)cc12 (centres unmarked) [Quinacrine] |  | 1 ± 0.2 µM | 5 µM | induce PLD | Literature-Reported: Active at (dose) [7]: Active at 60 mg/kg
38 | C=C[C@H]1C[N@@]2CC[C@H]1C[C@@H]2[C@@H](O)c1ccnc2ccc(OC)cc12 [Quinidine] |  | 13.4 ± 2 µM | 15.8 µM |  | EC50 [4]: 25 µM
39 | CC[C@]1(O)C[C@@H]2CN(CCc3c([nH]c4ccccc34)[C@@](C(=O)OC)(c3cc4c(cc3OC)N(C)[C@H]3[C@@](O)(C(=O)OC)[C@H](OC(C)=O)[C@]5(CC)C=CCN6CC[C@]43[C@@H]65)C2)C1 [Vinblastine] |  | 9.5 ± 5.5 µM | 12.6 µM |  | Cell Viability IC50 [1]: Inactive
40 | CN(C)C/C=C(/c1ccc(Br)cc1)c1cccnc1 [Zimelidine] |  | 27.4 ± 1.5 µM | 14.1 µM |  | EC50 ([3]; I13-35 cells): 30.4 µM
41 | CN(C)CC/C=C1/c2ccccc2Sc2ccc(Cl)cc21 [chlorprothixene] |  |  |  | significantly induced PLD formation | 
42 | Cl.Cl.OCCN1CCN(CC/C=C2/c3ccccc3Sc3ccc(C(F)(F)F)cc32)CC1 [cis-(Z)-Flupenthixol] | 131.7±6.4% |  |  | significantly induced PLD formation | Primary Screen Efficacy [2]: 37.3%
43 | CN1CCC[C@@H]1CCO[C@](C)(c1ccccc1)c1ccc(Cl)cc1 [clemastine] |  |  |  | significantly induced PLD formation | 
44 | CN(C)CCC=C1c2ccccc2C=Cc2ccccc21 [cyclobenzaprine] |  |  |  | identified as novel PLD inducers | 
45 | CN1CCC(=C2c3ccccc3C=Cc3ccccc32)CC1 [cyproheptadine] |  |  |  | identified as novel PLD inducers | 
46 | OCCN1CCN(CCCN2c3ccccc3Sc3ccc(C(F)(F)F)cc32)CC1 [fluphenazine] |  |  |  | positive | 
47 | CN1CCN(C2=Nc3ccccc3Oc3ccc(Cl)cc32)CC1 [lozapine] |  |  |  | positive | 
48 | OCCN1CCN(CCCN2c3ccccc3C=Cc3ccccc32)CC1 [opipramol] |  |  |  | identified as novel PLD inducers | 
49 | COc1ccccc1N1CCN(CCN(C(=O)c2ccc(F)cc2)c2ccccn2)CC1 [p-MPPF] |  |  |  | significantly induced PLD formation | 
50 | CC(CN1c2ccccc2Sc2ccccc21)N(C)C (centres unmarked) [promethazine] |  |  |  | positive | 
51 | CN1CCN(CCCN2c3ccccc3Sc3ccc(C(F)(F)F)cc32)CC1 [trifluoperazine] |  |  |  | positive | 
52 | aminobenzotropine |  |  |  | significantly induced PLD formation | 
